# Measurements published in US20150274932A1, “USE OF BIOCIDES AS FLAME RETARDANTS” (BAYER CROPSCIENCE AG, priority 2012, published 2015).
# Experiment: ASTM D 1929 ignition temperature test, polypropylene beads with and without Deltamethrin
# Format: physicochemical
# Details: polypropylene beads with 11 wt % Deltamethrin and 2 wt % Bumetrizole vs pure polypropylene beads; air velocity 25 mm/s; FIG. 1
# Text: ASTM D 1929: Standard Test Method for Determining Ignition Temperature of Plastics
# The objective of this method is to determine at which temperature plastic material (sheet or granules) release flammable gases and vapors to such an extent, that an explosive mixture with air can be formed, that can be ignited with a pilot flame.
# This “flash-point” of plastics is an important safety characteristic, which can be used to assess explosion and fire risk in plant where plastic material is processed, handled or stored. The objective of this method is to determine the temperature at which gases and vapors released from plastic sheets or granules spontaneously catch fire, i.e. without contact to an external ignition source. The Self-Ignition Temperature is relevant for the assessment of ignition risks due to hot surfaces in plant where plastic material is processed, e.g. in extruders. The tests are carried out by exposing the test item (sample) in an oven to a controlled stream of hot, fresh air. Ignition is detected by monitoring the temperature of the sample. For flash ignition, a pilot flame above the exhaust of the oven is used. For self-ignition test, no external ignition source is applied. The test are carried out in isothermal mode, i.e. at constant temperature. Several trials, at different temperatures are necessary to find the lowest temperature, at which ignition does occur. […]
compound,measurement,value
CC1(C)[C@H](C(=O)O[C@H](C#N)c2cccc(Oc3ccccc3)c2)[C@@H]1C=C(Br)Br [Deltamethrin],flash ignition temperature,higher flash ignition temperature
same,spontaneous ignition temperature,higher spontaneous ignition temperature
